Laboratory results from ChEMBL document CHEMBL1201862, “PubChem BioAssay data set” (2004).
Calls of active or inactive are those of the source.

Assays:
HEK293 [1] = assay: inhibition of NOD1-driven NF-kB reporter – cell-based, luminescence, uHTS, primary screen (AID 1578); format: functional; settings: Homo sapiens
BJ [2] = assay: BJ-TERT fibroblast viability loss – cell-based, RAS-independent, luminescence, dose response (AID 1933); format: functional; settings: Homo sapiens
HEK293 [3] = assay: cells; format: functional, cell-based; settings: Homo sapiens
BJ [4] = assay: cells; format: functional, cell-based; settings: Homo sapiens
HEK293 [5] = assay: cells; format: functional, cell-based; settings: Homo sapiens; remark: listed apart in the source
[6] = molecular target: Nucleotide-binding oligomerization domain-containing protein 2 (Homo sapiens, UniProt Q9HC29); assay: inhibition of NOD2-driven NF-kB reporter – cell-based, luminescence, uHTS, HEK293 (AID 1566); format: functional
HEK293 [7] = assay: NOD2 signaling inhibitors in MDP-stimulated cells, cell-based, uHTS, luminescence (AID 2001); format: functional; settings: Homo sapiens
HEK293 [8] = assay: cells; format: functional, cell-based; settings: Homo sapiens; remark: listed apart in the source
[9] = microbe, parasite or virus in culture; format: functional; settings: Mycobacterium tuberculosis
[10] = viability of PTEN-deleted HCT116 cells – cell-based, HCT116 PTEN knockout, dose response (AID 1047); format: functional;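 further: HCT116 colon tumor cells with PTEN knocked out; cells exposed to compound for 60 hours before readout; potency for loss of cell viability measured by luminescence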
[11] = viability of HCT116 lacking mutant beta-catenin – cell-based, human colon tumor, dose response (AID 1045); format: functional;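 further: HCT116 colon tumor cells with beta catenin knocked out; cells exposed to compound for 60 hours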
BJ [12] = assay: BJ-TERT-LT-ST fibroblast viability loss – cell-based, RAS-independent, luminescence, dose response (AID 1935); format: functional; settings: Homo sapiens;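 further: BJ fibroblasts immortalized with TERT plus LT and ST oncogenes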
[13] = DRD fibroblast viability loss – cell-based, non-viral oncogenic, luminescence, dose response (AID 1934); format: functional; settings: Homo sapiens
[14] = Luminescence Cell-Based Dose Retest to Confirm Inhibitors of Cancer Stem Cells. [Related pubchem assays (depositor defined):AID2717, AID2721]; format: functional; settings: Homo sapiens
[15] = molecular target: 1-acylglycerol-3-phosphate O-acyltransferase ABHD5/Perilipin-5 (Homo sapiens, UniProt Q00G26+Q8WTS1); assay: Luminescence-based biochemical high throughput dose response assay for inhibitors of the interaction of the lipase co-activator protein, abhydrolase domain containing 5 (ABHD5) with perilipin-5 (MLDP; PLIN5) (2K validation set). [Related pubchem assays (depositor defined):AID493035, AID493241]
Perilipin-1/ABHD5 = Perilipin-1/ABHD5 (Homo sapiens, UniProt O60240+Q8WTS1); assay: Luminescence-based biochemical high throughput dose response assay for inhibitors of the interaction of the lipase co-activator protein, abhydrolase domain containing 5 (ABHD5) with perilipin-1 (PLIN1) (2K validation set). [Related pubchem assays (depositor defined):AID493027, AID493057]
[16] = molecular target: T1, Replicative DNA helicase DnaB (Mycobacterium tuberculosis, UniProt P9WMR3); assay: DnaB intein splicing inhibitors, dose response, biochemical, cell-free fluorescence (AID 449749); format: functional
T1 sequence (P9WMR3 whole entry): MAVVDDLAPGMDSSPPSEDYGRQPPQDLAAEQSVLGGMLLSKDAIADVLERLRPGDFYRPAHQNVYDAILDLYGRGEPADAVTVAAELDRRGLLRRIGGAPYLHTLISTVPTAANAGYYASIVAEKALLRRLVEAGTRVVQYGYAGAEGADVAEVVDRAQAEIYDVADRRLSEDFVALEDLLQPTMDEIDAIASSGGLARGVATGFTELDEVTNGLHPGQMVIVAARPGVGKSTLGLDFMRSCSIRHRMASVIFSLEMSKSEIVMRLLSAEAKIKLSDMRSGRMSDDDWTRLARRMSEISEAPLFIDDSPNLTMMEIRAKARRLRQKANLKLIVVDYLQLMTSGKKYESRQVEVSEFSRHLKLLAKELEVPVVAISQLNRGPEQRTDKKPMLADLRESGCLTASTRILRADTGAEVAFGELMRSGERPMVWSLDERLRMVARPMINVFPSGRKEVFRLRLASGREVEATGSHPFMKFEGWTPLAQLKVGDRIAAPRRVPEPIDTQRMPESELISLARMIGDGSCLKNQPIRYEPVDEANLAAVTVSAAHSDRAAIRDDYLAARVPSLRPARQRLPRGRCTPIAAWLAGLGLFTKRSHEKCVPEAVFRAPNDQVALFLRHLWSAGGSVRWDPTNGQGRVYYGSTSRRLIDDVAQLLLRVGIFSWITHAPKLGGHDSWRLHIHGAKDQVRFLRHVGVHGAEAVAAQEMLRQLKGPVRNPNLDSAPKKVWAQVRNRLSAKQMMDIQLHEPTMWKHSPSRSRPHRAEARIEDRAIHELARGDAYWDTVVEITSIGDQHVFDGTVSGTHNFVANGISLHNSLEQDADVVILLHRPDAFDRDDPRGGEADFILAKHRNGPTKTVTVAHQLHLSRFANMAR

BJ [17] = assay: growth inhibition of engineered Ras-driven BJ cells – cell-based, alamar blue fluorescence, cherrypicked samples, dose response (AID 2631); format: functional; settings: Homo sapiens;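 further: confirmatory dose-response assay in RAS-dependent BJ fibroblasts engineered with TERT, LT and ST, with cytotoxicity read by fluorescence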
Protein RecA = molecular target: T2, Protein RecA (Mycobacterium tuberculosis, UniProt P9WHJ3); assay: Fluorescence Cell-Free Homogeneous Dose Retest to Identify Inhibitors of RecA-Intein Splicing Activity. [Related pubchem assays (depositor defined):AID2097, AID2223, AID489010, AID492950]; format: functional
T2 sequence (P9WHJ3 whole entry): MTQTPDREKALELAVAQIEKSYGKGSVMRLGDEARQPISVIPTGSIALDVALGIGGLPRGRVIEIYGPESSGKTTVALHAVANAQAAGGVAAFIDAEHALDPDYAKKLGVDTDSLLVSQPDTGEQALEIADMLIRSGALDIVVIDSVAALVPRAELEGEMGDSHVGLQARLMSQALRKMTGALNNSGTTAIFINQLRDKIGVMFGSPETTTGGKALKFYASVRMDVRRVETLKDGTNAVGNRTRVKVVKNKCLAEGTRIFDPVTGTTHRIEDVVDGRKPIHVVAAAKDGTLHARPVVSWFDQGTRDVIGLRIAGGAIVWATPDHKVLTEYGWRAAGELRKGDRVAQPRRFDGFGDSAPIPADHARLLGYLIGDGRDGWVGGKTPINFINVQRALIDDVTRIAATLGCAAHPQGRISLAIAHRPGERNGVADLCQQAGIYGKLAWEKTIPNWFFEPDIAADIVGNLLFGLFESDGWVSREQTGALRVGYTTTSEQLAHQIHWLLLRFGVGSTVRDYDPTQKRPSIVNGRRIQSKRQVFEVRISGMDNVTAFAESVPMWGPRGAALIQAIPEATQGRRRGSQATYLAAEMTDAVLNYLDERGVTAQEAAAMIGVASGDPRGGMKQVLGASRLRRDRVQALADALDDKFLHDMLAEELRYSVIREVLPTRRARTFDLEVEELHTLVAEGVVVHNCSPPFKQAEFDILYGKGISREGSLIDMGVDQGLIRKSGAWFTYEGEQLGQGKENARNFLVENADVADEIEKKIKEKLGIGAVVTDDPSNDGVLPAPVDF

Bcl-2-related protein A1 = molecular target: T3, Bcl-2-related protein A1 (Mus musculus, UniProt Q07440); format: functional;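 further: confirmatory dose–response counterscreen on Bfl-1, used to check hits from a UBC13 polyubiquitin inhibitor campaign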
T3 sequence (Q07440 whole entry): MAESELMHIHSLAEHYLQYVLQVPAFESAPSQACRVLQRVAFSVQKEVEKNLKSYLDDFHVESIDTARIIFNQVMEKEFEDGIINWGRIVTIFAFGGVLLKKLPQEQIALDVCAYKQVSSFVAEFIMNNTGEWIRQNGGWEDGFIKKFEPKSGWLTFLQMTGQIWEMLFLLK

[18] = molecular target: T4, Ubiquitin-conjugating enzyme E2 N (Homo sapiens, UniProt P61088); format: functional
T4 sequence (P61088 whole entry): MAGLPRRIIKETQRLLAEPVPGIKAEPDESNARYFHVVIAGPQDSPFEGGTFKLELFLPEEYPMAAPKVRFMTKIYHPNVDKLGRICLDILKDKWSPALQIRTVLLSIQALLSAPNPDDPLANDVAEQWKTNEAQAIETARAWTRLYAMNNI

[19] = molecular target: T4, Ubiquitin-conjugating enzyme E2 N; format: functional; remark: listed apart in the source
[20] = molecular target: Glyceraldehyde-3-phosphate dehydrogenase (Homo sapiens, UniProt P04406)
[21] = molecular target: T5, Alkaline phosphatase, tissue-nonspecific isozyme (Homo sapiens, UniProt P05186); assay: potency against alkaline phosphatase TNAP – biochemical, luminescent, dose response, SAR follow-up (AID 1056)
T5 sequence (P05186 whole entry): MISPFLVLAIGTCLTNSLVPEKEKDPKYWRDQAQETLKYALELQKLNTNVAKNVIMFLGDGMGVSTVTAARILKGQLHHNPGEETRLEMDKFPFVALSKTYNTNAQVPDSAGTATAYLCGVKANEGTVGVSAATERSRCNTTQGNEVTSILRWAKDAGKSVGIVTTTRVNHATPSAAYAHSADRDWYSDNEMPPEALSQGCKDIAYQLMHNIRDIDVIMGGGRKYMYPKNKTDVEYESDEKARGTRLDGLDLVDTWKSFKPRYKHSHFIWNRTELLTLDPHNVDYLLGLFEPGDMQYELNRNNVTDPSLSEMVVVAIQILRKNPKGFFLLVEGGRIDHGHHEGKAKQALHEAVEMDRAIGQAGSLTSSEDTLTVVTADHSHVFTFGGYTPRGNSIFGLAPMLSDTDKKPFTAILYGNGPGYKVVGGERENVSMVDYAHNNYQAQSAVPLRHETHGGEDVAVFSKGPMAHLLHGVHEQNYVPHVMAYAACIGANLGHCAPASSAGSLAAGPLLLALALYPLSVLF

Chain of Nucleotide-binding oligomerization domain-containing protein 2 (Q9HC29 whole entry, the tested form may be a part): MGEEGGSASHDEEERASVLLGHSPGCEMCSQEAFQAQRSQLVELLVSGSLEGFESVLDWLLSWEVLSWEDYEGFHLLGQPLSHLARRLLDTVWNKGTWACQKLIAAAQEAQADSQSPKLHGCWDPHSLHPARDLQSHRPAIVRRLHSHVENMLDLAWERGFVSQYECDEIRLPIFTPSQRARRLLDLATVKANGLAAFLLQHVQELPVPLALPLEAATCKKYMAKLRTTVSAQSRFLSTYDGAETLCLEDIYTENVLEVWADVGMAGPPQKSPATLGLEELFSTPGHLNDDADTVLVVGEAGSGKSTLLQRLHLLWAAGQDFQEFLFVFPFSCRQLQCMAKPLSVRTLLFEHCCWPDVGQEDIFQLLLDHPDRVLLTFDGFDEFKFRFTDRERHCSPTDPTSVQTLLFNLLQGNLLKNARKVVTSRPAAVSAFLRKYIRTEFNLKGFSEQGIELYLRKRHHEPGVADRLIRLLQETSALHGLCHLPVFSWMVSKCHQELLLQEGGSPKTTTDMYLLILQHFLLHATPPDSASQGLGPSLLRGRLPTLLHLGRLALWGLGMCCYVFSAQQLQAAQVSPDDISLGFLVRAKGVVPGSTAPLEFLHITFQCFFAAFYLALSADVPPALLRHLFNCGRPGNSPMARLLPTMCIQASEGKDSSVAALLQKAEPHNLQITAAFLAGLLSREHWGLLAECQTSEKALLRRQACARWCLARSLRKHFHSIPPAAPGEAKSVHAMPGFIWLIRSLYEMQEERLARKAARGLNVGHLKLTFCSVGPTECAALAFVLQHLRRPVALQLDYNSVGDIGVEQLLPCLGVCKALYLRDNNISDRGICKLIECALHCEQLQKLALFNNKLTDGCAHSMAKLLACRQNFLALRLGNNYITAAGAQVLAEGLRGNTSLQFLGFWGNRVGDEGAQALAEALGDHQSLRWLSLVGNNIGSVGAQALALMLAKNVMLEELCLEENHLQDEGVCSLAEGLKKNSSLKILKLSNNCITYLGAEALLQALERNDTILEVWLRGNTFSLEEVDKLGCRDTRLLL
Chain of Perilipin-1/ABHD5 (Q8WTS1 whole entry, the tested form may be a part): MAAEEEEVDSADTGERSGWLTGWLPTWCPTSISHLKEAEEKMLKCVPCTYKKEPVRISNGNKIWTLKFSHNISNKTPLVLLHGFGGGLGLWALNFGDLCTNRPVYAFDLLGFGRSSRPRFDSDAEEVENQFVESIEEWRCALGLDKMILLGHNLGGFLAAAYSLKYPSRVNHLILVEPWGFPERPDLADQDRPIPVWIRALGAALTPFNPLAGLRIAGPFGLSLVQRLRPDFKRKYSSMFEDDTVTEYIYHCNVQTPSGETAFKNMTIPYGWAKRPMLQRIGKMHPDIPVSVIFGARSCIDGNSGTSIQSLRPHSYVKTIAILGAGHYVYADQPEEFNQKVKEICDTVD
Chain of Perilipin-1/ABHD5 (O60240 whole entry, the tested form may be a part): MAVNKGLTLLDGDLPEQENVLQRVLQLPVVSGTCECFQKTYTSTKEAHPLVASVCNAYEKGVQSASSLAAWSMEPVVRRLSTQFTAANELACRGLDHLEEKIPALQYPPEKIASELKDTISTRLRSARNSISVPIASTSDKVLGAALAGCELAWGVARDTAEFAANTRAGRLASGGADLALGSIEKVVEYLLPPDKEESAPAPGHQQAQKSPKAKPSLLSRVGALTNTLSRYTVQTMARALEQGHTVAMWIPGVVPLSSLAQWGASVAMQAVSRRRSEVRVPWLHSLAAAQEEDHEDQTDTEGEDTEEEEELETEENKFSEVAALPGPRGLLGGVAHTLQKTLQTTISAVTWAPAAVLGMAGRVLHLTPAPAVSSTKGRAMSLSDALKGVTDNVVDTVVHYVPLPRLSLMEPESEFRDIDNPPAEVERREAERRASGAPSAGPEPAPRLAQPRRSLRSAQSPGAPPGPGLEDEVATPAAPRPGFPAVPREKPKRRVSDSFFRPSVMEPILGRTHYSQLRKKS
Chain of Glyceraldehyde-3-phosphate dehydrogenase (P04406 whole entry): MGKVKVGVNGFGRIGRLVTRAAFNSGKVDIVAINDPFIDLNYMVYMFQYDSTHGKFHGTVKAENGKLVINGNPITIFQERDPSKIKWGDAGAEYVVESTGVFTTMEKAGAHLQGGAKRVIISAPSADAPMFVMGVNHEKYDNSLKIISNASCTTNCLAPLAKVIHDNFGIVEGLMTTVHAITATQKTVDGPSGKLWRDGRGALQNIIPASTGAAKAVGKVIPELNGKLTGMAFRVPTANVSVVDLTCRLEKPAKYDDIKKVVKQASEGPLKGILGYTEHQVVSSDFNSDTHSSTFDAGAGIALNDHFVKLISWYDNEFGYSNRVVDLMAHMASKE
Chain of 1-acylglycerol-3-phosphate O-acyltransferase ABHD5/Perilipin-5 (Q00G26 whole entry, the tested form may be a part): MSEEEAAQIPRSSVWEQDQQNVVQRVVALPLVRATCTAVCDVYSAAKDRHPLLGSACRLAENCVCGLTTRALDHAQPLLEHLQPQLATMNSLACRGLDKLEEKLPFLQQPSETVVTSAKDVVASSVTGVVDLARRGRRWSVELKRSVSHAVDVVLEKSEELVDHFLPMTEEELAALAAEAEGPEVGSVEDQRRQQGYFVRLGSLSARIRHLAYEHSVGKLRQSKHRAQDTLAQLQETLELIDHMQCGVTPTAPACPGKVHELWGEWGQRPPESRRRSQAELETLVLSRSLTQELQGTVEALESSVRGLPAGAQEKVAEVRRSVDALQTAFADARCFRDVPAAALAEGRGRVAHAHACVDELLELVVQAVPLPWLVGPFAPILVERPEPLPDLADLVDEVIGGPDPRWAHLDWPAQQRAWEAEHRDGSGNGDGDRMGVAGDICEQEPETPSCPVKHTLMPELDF
Chain of 1-acylglycerol-3-phosphate O-acyltransferase ABHD5/Perilipin-5 (Q8WTS1 whole entry, the tested form may be a part): as the sequence (Q8WTS1 whole entry, the tested form may be a part) above

COc1ccc(CN(CCC(c2ccccc2)c2ccc(OC(C)C)cc2)C(=O)CCl)cc1OC (centres undefined)
EC50 (HEK293 [1]): 17.9 µM (active)
EC50 (BJ [2]): 0.605 µM (active)
IC50 (HEK293 [3]): 6.94 µM (active)
EC50 (BJ [4]): 4.25 µM (active)
IC50 (HEK293 [5]): 10.6 µM (active)
EC50 [6]: > 20 µM (inactive)
IC50 (HEK293 [7]): 13.9 µM (inactive)
IC50 (HEK293 [8]): > 20 µM (inactive)
CC50 [9]: 1.49 µM (active)
EC50 [10]: 6.29 µM (active)
EC50 [11]: 6.08 µM (active)
EC50 (BJ [12]): 4.09 µM (inconclusive)
EC50 [13]: 3.74 µM (active)
AC50 [14]: 1.25 µM (active)
IC50 [15]: 3.57 µM (active)
IC50 (Perilipin-1/ABHD5): 3.17 µM (active)
AC50 [16]: 0.335 µM (active)
EC50 (BJ [17]): 3.43 µM (active)
EC50 (Protein RecA): 0.333 µM (active)

COc1ccc(/C=N\NC(=O)c2sc(N)nc2C)cc1OC
IC50 (Bcl-2-related protein A1): > 20 µM (inactive)
IC50 [18]: 0.507 µM (active)
IC50 [19]: 0.548 µM (active)

CC(C)CSc1nnc(N)[nH]1
IC50 [20]: > 100 µM (not active)
IC50 [21]: 60.8 µM (active)
